Test results: ChEMBL document CHEMBL4130444, “1,4-Naphthoquinones as inhibitors of Itch, a HECT domain-E3 ligase, and tumor growth suppressors in multiple myeloma” (Eur J Med Chem, 2017)

Key:
[1] = tested on: HCT-116; assay: Antiproliferative activity against human HCT116 cells incubated for 48 hrs by SRB assay; type: functional; conditions: HCT-116, 48 h
[2] = tested on: MDA-MB-231; assay: Antiproliferative activity against human MDA-MB-231 cells incubated for 48 hrs by SRB assay; type: functional; conditions: MDA-MB-231, 48 h

GI50 [1] [µM]	GI50 [2] [µM]	Structure (SMILES)
6.8	> 10	O=C(Nc1ccc2ncccc2c1)c1ccc(CNC2=C(Cl)C(=O)c3ccccc3C2=O)cc1
> 10	> 10	O=C(Nc1ccc2[nH]ccc2c1)c1ccc(CNC2=C(Cl)C(=O)c3ccccc3C2=O)cc1

The next lines start with the compound.

Structure (SMILES)	GI50 [1] [µM]	GI50 [2] [µM]
O=C(Nc1cccc2[nH]ccc12)c1ccc(CNC2=C(Cl)C(=O)c3ccccc3C2=O)cc1	> 10	> 10
O=C(Nc1cnccn1)c1ccc(CNC2=C(Cl)C(=O)c3ccccc3C2=O)cc1	5.5	9.2
O=C(Nc1cccnc1)c1ccc(CNC2=C(Cl)C(=O)c3ccccc3C2=O)cc1	> 10	> 10
